# Data: patent publication US11166460B2, “α-amino acrylate microbicide, and preparation method therefor and uses thereof” (priority 2017, dated 2021)
# Where two headings read alike, the source gives them in different places.
# Assays:
# Sclerotinia sclerotiorum = assay: microbe, parasite or virus in culture; format: cell-based; details: Sclerotinia sclerotiorum; 50 μg/mL; read-out: Fungicidal activity, inhibition, SS
# Rhizoctonia cerealis = assay: Fungicidal activity, fungi growth rate method, RC; format: cell-based; details: Ceratobasidium cereale; 50 μg/mL; read-out: Fungicidal activity, inhibition, RC
# wheat Gibberella zeae = assay: microbe, parasite or virus in culture; format: cell-based; details: Fusarium graminearum
# Botrytis cinerea = assay: Fungicidal activity, fungi growth rate method, BC; format: cell-based; details: Botrytis cinerea; 50 μg/mL; read-out: Fungicidal activity, inhibition, BC
# Alternaria solani = assay: Fungicidal activity, fungi growth rate method, AS; format: cell-based; details: Alternaria solani; 50 μg/mL; read-out: Fungicidal activity, inhibition, AS
# [1] = tested on: tobacco mosaic virus (TMV); assay: Anti-TMV protective activity (protection mode), live friction inoculation on tobacco seedlings; format: in vivo; details: Tobacco mosaic virus, read-out: Anti-TMV activity, Protection effect (inhibition)
# [2] = tested on: Phytophthora infestans (Mont) de Bary; assay: microbe, parasite or virus in culture; format: cell-based; details: Phytophthora infestans, read-out: Fungicidal activity, inhibition, PI
# Cercospora arachidicola = assay: Fungicidal activity, fungi growth rate method, CA; format: cell-based; details: Mycosphaerella arachidis; 50 μg/mL; read-out: Fungicidal activity, inhibition, CA
# [3] = tested on: tobacco mosaic virus (TMV); assay: Anti-TMV inducing activity (induction mode), tobacco seedlings; format: in vivo; details: Tobacco mosaic virus, read-out: Anti-TMV activity, Induction effect (inhibition), 100 μg/mL, tobacco seedlings
# [4] = tested on: tobacco mosaic virus (TMV); assay: Anti-TMV inactivation activity (inactivation mode), compound mixed with TMV before inoculation of tobacco leaves; format: in vivo; details: Tobacco mosaic virus, read-out: Anti-TMV activity, Inactivation effect (inhibition)
# [5] = tested on: tobacco mosaic virus (TMV); assay: Anti-TMV curative activity (treatment mode), live friction inoculation on tobacco seedlings; format: in vivo; details: Tobacco mosaic virus, read-out: Anti-TMV activity, Curative effect (inhibition), 100 μg/mL, tobacco seedlings, checked on seventh day
# Physalospora piricola = assay: Fungicidal activity, fungi growth rate method, PP; format: cell-based; details: 50 μg/mL; read-out: Fungicidal activity, inhibition, PP
# Pellicularia sasakii = assay: Fungicidal activity, fungi growth rate method, PS; format: cell-based; details: 50 μg/mL; read-out: Fungicidal activity, inhibition, PS
# [6] = read-out: Fungicidal activity, inhibition, GZ
Compound,inhibition at 50 µg/mL (Sclerotinia sclerotiorum),inhibition at 50 µg/mL (Rhizoctonia cerealis),melting point,inhibition at 50 µg/mL (wheat Gibberella zeae; [6]),inhibition at 50 µg/mL (Botrytis cinerea),inhibition at 50 µg/mL (Alternaria solani),inhibition at 100 µg/mL [1],inhibition at 50 µg/mL [2],inhibition at 50 µg/mL (Cercospora arachidicola),inhibition at 100 µg/mL [3],inhibition at 100 µg/mL [4],inhibition at 100 µg/mL [5],inhibition at 50 µg/mL (Physalospora piricola),inhibition at 50 µg/mL (Pellicularia sasakii),inhibition at 50 µg/mL (wheat Gibberella zeae; read-out: Fungicidal activity (inhibition) against GZ: wheat Gibberella zeae)
"O=C(N/C(=C\c1ccccc1)C(=O)N1CCC(O)(c2ccc(Br)cc2)CC1)c1ccc(Br)cc1 [Compound 8, (Z)-N-[1-[[4-(4-bromophenyl)-4-hydroxy-1-piperidinyl]carbonyl]-2-phenylethenyl]-4-bromobenzamide]",50%,23%,186 to 188 °C,29%,18%,21%,1%,26%,18%,50%,19%,0%,6%,20%,
"O=C(N/C(=C\c1ccc(Br)cc1)C(=O)N1CCC(O)(c2ccc(Br)cc2)CC1)c1ccccc1 [Compound 19, (Z)-N-[1-[[4-(4-bromophenyl)-4-hydroxy-1-piperidinyl]carbonyl]-2-(4-bromophenyl)ethenyl]benzamide]",44%,19%,147 to 148 °C,5%,4%,21%,46%,27%,3%,0%,0%,0%,16%,12%,
"COC(=O)CCNC(=O)/C(=C/c1ccccc1)NC(=O)c1ccccc1 [Compound 35, (Z)-N-[1-[[1-(3-methyl propionate)amino]carbonyl]-2-phenylethenyl]benzamide]",67%,7%,139 to 141 °C,7%,21%,25%,3%,13%,3%,23%,16%,0%,3%,0%,
"Cc1nnsc1/C=C(\NC(=O)c1ccccc1)C(=O)O [Compound 71, (Z)-2-benzoylamino-3-[5-(4-methyl-1,2,3-thiadiazol)]propenoic acid]",47%,18%,215 to 217 °C,86%,12%,14%,53%,21%,24%,27%,67%,0%,6%,9%,86%
"CC(C)(C)OC(=O)N1CCC(c2nc(C(=O)NCC(=O)O)cs2)CC1 [Compound 65, N-[[4-[2-[4-(1-Boc-piperidine)]thiazol]]formyl]ethanoic acid]",67%,10%,183 to 185 °C,16%,10%,9%,39%,18%,10%,38%,40%,0%,3%,9%,
